What follows are compounds tested against T1, USP28 (His-tagged USP28-FL-mammalian) (Homo sapiens, UniProt Q96RU2) (assay: Ubiquitin-Rhodamine 110 Assay for USP28 Activity, Example A-1(a)). Conditions: Ubiquitin-Rhodamine 110 assay, Example A-1(a); read-out: USP28 A-1(a) IC50 range.
T1 construct: Expression of USP28 (1-1077)-TEV-6*His (pTT5 vector); made in house; host or cells: Expi293f cells (pTT5 vector)
T1 sequence (Q96RU2 1-1077): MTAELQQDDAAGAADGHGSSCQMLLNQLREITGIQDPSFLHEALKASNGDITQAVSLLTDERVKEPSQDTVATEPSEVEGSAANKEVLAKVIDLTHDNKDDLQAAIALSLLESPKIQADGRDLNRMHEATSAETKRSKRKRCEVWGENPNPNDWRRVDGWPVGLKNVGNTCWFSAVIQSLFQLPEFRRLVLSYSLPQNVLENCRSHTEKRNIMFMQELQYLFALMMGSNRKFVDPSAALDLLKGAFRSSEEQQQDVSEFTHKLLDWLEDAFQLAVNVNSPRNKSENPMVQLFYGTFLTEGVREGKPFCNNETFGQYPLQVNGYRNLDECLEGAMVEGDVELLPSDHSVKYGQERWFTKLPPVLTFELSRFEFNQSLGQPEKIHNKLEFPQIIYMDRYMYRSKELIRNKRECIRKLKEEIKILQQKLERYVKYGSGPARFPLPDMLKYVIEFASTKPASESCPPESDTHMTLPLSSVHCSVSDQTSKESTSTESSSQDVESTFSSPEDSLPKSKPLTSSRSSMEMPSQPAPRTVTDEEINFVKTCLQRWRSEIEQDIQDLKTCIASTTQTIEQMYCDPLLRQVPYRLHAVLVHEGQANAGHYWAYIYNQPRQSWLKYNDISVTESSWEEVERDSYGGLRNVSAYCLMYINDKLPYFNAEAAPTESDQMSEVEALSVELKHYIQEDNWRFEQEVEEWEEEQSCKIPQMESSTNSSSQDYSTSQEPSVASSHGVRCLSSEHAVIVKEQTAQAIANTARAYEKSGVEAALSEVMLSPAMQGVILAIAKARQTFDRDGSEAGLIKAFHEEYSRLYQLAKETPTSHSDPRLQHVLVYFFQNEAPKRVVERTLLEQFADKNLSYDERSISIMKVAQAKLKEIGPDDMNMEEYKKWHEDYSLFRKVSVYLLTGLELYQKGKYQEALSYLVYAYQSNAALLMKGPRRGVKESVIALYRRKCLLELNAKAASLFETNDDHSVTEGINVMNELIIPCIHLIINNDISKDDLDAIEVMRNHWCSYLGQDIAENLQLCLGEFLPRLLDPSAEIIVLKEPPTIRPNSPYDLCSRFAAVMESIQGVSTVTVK
Type: biochemical
How it was run: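 Full-length His-tagged USP28 (1-1077, Expi293F-expressed; […]) was preincubated 30 min with compound (25 μM–1.3 nM, 10-point 3-fold) in 20 mM Tris-HCl pH 8.0, 3 mM BME, 0.03% BGG, 0.01% Triton X-100. Ub-Rh110 (25 nM) was then added for 45 min at room temperature, stopped with citric acid, and read by fluorescence (485/535 nm).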
With `Cc1ccc2c(N)c(C(=O)N[C@H]3CCc4nc(N5CC6(C[C@H](N)CO6)C5)ccc4C3)sc2n1` [Example 399, 3-amino-N-[(6S)-2-[(7S)-7-amino-5-oxa-2-azaspiro[3.4]octan-2-yl]-5,6,7,8-tetrahydroquinolin-6-yl]-6-methylthieno[2,3-b]pyridine-2-carboxamide] the IC50 was 1 to 50 nM.
With `Cc1ccc2c(N)c(C(=O)N[C@H]3CCc4nc(N5C[C@@H](N)[C@@]6(CCOC6)C5)ccc4C3)sc2n1` [Example 431, 3-amino-N-[(6S)-2-[(5R,9S)-9-amino-2-oxa-7-azaspiro[4.4]nonan-7-yl]-5,6,7,8-tetrahydroquinolin-6-yl]-6-methylthieno[2,3-b]pyridine-2-carboxamide] the IC50 was 50 to 200 nM.
`COC[C@@H]1[C@@H](N)CCN1c1ccc2c(n1)CC[C@H](NC(=O)c1sc3nc(C)ccc3c1N)C2` [Example 420, 3-amino-N-[(6S)-2-[(2S,3S)-3-amino-2-(methoxymethyl)pyrrolidin-1-yl]-5,6,7,8-tetrahydroquinolin-6-yl]-6-methylthieno[2,3-b]pyridine-2-carboxamide] gave an IC50 of 1 to 50 nM.
`COC[C@H]1[C@H](N)CCN1c1ccc2c(n1)CC[C@H](NC(=O)c1sc3nc(C)ccc3c1N)C2` [Example 419, 3-amino-N-[(6S)-2-[(2R,3R)-3-amino-2-(methoxymethyl)pyrrolidin-1-yl]-5,6,7,8-tetrahydroquinolin-6-yl]-6-methylthieno[2,3-b]pyridine-2-carboxamide] was tested, and the IC50 was 50 to 200 nM.
With `CO[C@H]1CN(c2ncc3c(n2)CC[C@H](NC(=O)c2sc4nc(C)ccc4c2N)C3)C[C@@H]1N` [Example 186, 3-amino-N-[(6S)-2-[(3S,4S)-3-amino-4-methoxypyrrolidin-1-yl]-5,6,7,8-tetrahydroquinazolin-6-yl]-6-methylthieno[2,3-b]pyridine-2-carboxamide] the IC50 was > 2000 nM.
`CO[C@]12CCN[C@@H]1CN(c1ccc3c(c1)OC[C@H](NC(=O)c1sc4nc(C)ccc4c1N)C3)C2` [Example 290, N-[(3R )-7-[(3aS,6aR)-3a-methoxy-octahydropyrrolo[2,3-c]pyrrol-5-yl]-3,4-dihydro-2H-1-benzopyran-3-yl]-3-amino-6-methylthieno[2,3-b]pyridine-2-carboxamide] showed an IC50 of 1 to 50 nM.
`Cc1ccc2c(N)c(C(=O)N[C@H]3CCc4nc(N5C[C@@H](CF)[C@@H](N)C5)ccc4C3)sc2n1` (single isomer, unassigned) [Example 27-1] gave an IC50 of 50 to 200 nM.
For `Cc1ccc2c(N)c(C(=O)N[C@H]3CCc4nc(N5C[C@H](OC(C)C)[C@@H](N)C5)ncc4C3)sc2n1` [Example 271, 3-amino-N-[(6S)-2-[(3S,4S)-3-amino-4-(propan-2-yloxy)pyrrolidin-1-yl]-5,6,7,8-tetrahydroquinazolin-6-yl]-6-methylthieno[2,3-b]pyridine-2-carboxamide], the IC50 was > 2000 nM.
Work on `Cc1ccc2c(N)c(C(=O)N[C@H]3CCc4nc(N5C[C@@H]6COC[C@]6(N)C5)ccc4C3)sc2n1` [Example 394, N-[(6S)-2-[(3aR,6aS)-3a-amino-hexahydro-1H-furo[3,4-c]pyrrol-5-yl]-5,6,7,8-tetrahydroquinolin-6-yl]-3-amino-6-methylthieno[2,3-b]pyridine-2-carboxamide] yielded an IC50 of 50 to 200 nM.
Compound `COCC1(N)CN(c2ccc3c(c2)OC[C@H](NC(=O)c2sc4nc(C)ccc4c2N)C3)C1` [Example 373, 3-amino-N-[(3R)-7-[3-amino-3-(methoxymethyl)azetidin-1-yl]-3,4-dihydro-2H-1-benzopyran-3-yl]-6-methylthieno[2,3-b]pyridine-2-carboxamide] has an IC50 of 1 to 50 nM.
Work on `Cc1ccc2c(N)c(C(=O)N[C@H]3CCc4nc(N5C[C@H]6COC[C@@H](C5)[C@@H]6N)ccc4C3)sc2n1` [Example 397, 3-amino-6-methyl-N-[(6S)-2-[(1R,5S,9s)-9-amino-3-oxa-7-azabicyclo[3.3.1]nonan-7-yl]-5,6,7,8-tetrahydroquinolin-6-yl]thieno[2,3-b]pyridine-2-carboxamide] yielded an IC50 of 50 to 200 nM.
Compound `Cc1ccc2c(N)c(C(=O)N[C@H]3COc4cc(N5C[C@@H](CF)[C@@H](N)C5)ccc4C3)sc2n1` [Example 423, 3-amino-N-[(3R)-7-[(3R,4R)-3-amino-4-(fluoromethyl)pyrrolidin-1-yl]-3,4-dihydro-2H-1-benzopyran-3-yl]-6-methylthieno[2,3-b]pyridine-2-carboxamide] has an IC50 of 1 to 50 nM.
`CN[C@H]1CN(c2ccc3c(n2)CC[C@H](NC(=O)c2sc4nc(C)ccc4c2N)C3)C[C@@H]1COC` (single isomer, unassigned) [Example 26-1] was tested, and the IC50 was 50 to 200 nM.
For `Cc1ccc2c(N)c(C(=O)N[C@H]3CCc4nc(N5CC[C@@]6(C5)OCC[C@H]6N)ccc4C3)sc2n1` [Example 405, 3-amino-N-[(6S)-2-[(4R,5S)-4-amino-1-oxa-7-azaspiro[4.4]nonan-7-yl]-5,6,7,8-tetrahydroquinolin-6-yl]-6-methylthieno[2,3-b]pyridine-2-carboxamide], the IC50 was 50 to 200 nM.
Compound `Cc1ccc2c(N)c(C(=O)N[C@H]3CCc4nc(N5C[C@@H](N)C6(C5)OCCO6)ccc4C3)sc2n1` (single isomer, unassigned) [Example 29-2] has an IC50 of 200 to 2000 nM.
Work on `Cc1ccc2c(N)c(C(=O)N[C@H]3CCc4nc(N5C[C@@H](CF)[C@H](N)C5)ccc4C3)sc2n1` [Example 385, 3-amino-N-[(6S)-2-[(3S,4R)-3-amino-4-(fluoromethyl)pyrrolidin-1-yl]-5,6,7,8-tetrahydroquinolin-6-yl]-6-methylthieno[2,3-b]pyridine-2-carboxamide] yielded an IC50 of 50 to 200 nM.
Work on `CN[C@@H]1CN(c2ccc3c(n2)CC[C@H](NC(=O)c2sc4nc(C)ccc4c2N)C3)C[C@H]1C(F)F` [Example 377, 3-amino-N-[(6S)-2-[(3R,4S)-3-(difluoromethyl)-4-(methylamino)pyrrolidin-1-yl]-5,6,7,8-tetrahydroquinolin-6-yl]-6-methylthieno[2,3-b]pyridine-2-carboxamide] yielded an IC50 of 50 to 200 nM.
`Cc1ccc2c(N)c(C(=O)N[C@H]3CCc4nc(N5CC[C@@](N)(CO)C5)ccc4C3)sc2n1` [Example 387, 3-amino-N-[(6S)-2-[(3S)-3-amino-3-(hydroxymethyl)pyrrolidin-1-yl]-5,6,7,8-tetrahydroquinolin-6-yl]-6-methylthieno[2,3-b]pyridine-2-carboxamide] was tested, and the IC50 was 50 to 200 nM.
With `Cc1ccc2c(N)c(C(=O)N[C@@H]3CCc4nc(N5C[C@H](C(F)F)[C@@H](N)C5)ncc4C3)sc2n1` [Example 383, 3-amino-N-[(6R)-2-[(3R,4S)-3-amino-4-(difluoromethyl)pyrrolidin-1-yl]-5,6,7,8-tetrahydroquinazolin-6-yl]-6-methylthieno[2,3-b]pyridine-2-carboxamide] the IC50 was > 2000 nM.
`CC(=O)N[C@@H]1CN(c2ccc3c(n2)CC[C@H](NC(=O)c2sc4nc(C)ccc4c2N)C3)C[C@H]1C(F)F` [Example 372, 3-amino-N-[(6S)-2-[(3R,4S)-3-(difluoromethyl)-4-acetamidopyrrolidin-1-yl]-5,6,7,8-tetrahydroquinolin-6-yl]-6-methylthieno[2,3-b]pyridine-2-carboxamide] gave an IC50 of 50 to 200 nM.
`CO[C@@]12CCN[C@H]1CN(c1ccc3c(c1)OC[C@H](NC(=O)c1sc4nc(C)ccc4c1N)C3)C2` [Example 289, N-[(3R)-7-[(3aR,6aS)-3a-methoxy-octahydropyrrolo[2,3-c]pyrrol-5-yl]-3,4-dihydro-2H-1-benzopyran-3-yl]-3-amino-6-methylthieno[2,3-b]pyridine-2-carboxamide] gave an IC50 of 1 to 50 nM.
`Cc1ccc2c(N)c(C(=O)N[C@H]3CCc4nc(N5C[C@H](CF)[C@H](N)C5)ccc4C3)sc2n1` (single isomer, unassigned) [Example 27-2] gave an IC50 of 50 to 200 nM.
In the case of `Cc1ccc2c(N)c(C(=O)N[C@H]3CCc4nc(N5C[C@H](N)[C@]6(CCOC6)C5)ccc4C3)sc2n1` [Example 430, 3-amino-N-[(6S)-2-[(5S,9R)-9-amino-2-oxa-7-azaspiro[4.4]nonan-7-yl]-5,6,7,8-tetrahydroquinolin-6-yl]-6-methylthieno[2,3-b]pyridine-2-carboxamide], the IC50 is reported as 50 to 200 nM.
With `COC[C@@]1(N)CCN(c2ccc3c(n2)CC[C@H](NC(=O)c2sc4nc(C)ccc4c2N)C3)C1` [Example 388, 3-amino-N-[(6S)-2-[(3R)-3-amino-3-(methoxymethyl)pyrrolidin-1-yl]-5,6,7,8-tetrahydroquinolin-6-yl]-6-methylthieno[2,3-b]pyridine-2-carboxamide] the IC50 was 50 to 200 nM.

Reference: patent publication US11524966B1 (Valo Early Discovery, Inc., priority 2017, dated 2022)
